{
  "source": "patent US8205612B2",
  "about": "“Dry powder aerosol generator” (The University of North Carolina at Chapel Hill, NC, priority 2007, dated 2012)",
  "settings": "in vivo, iv, 20 mg/kg",
  "protocol": "Where F is the absolute bioavailability, AUCLUNG and DLUNG are the area under the curve and dose, respectively, for drug administration through the lung. AUCIV and DIV are areas under the curve and dose, respectively, of drug administered intravenously. From internal PK Studies performed, it is known that F equals 0.54 for capreomycin particles administered through the lungs, AUCIV equals 48.47 μgh/ml, and DIV equals 20 mg/kg.",
  "data": [
    {"substance": "capreomycin", "values": [
      {"measurement": "AUCIV", "result": 48.47, "unit": "μgh/ml"}
    ]}
  ]
}
